Data from patent publication US20070104648A1, “Compositions, methods of preparing amino acids, and nuclear magnetic resonance spectroscopy” (Glyconix Corporation, priority 2005, published 2007).

test: not given; details: physiological pH; cited from earlier work

Row | Compound | water solubility
1 | N[C@@H](Cc1ccc(B(O)O)cc1)C(=O)O [BPA, para-boronophenylalanine] | poor water solubility

test: Binding constants (pK) of L-p-BPA carbohydrate/polyol complexes by 1H-NMR integration of aromatic protons; format: physicochemical; details: 1H-NMR in D2O buffered to physiological pH (7.4); free L-p-BPA vs complex aromatic protons; three concentrations
Text: For fructose and sorbose, or when a large excess of another carbohydrate or polyol is used, the p-BPA remains in solution at a pH of 7.4, and approximately 90% of the p-BPA is present as its sodium carboxylate, with the remainder as its free acid. A large excess of carbohydrate or polyol is preferred when pK is small; however, for complexes with a pK>about 3 a large excess in not need. The ratio of free p-BPA to p-BPA:carbohydrate complex can be determined by integration of the aromatic protons resonances (p-BPA, 7.73 and 7.33 ppm; p-BPA-carbohydrate complex, 7.5 and 7.2 ppm) in the 1H-NMR spectrum using D2O buffered to physiological pH as the solvent. For example, L-p-boronophenylalanine fructose complex has a pK of 3.2 while the meso-erythitol complex has a pK of 1.0, the threitol complex has a pK of 1.3, the adonitol complex has a pK of 1.7, the arabitol complex has a pK of 2.3, the rhamnitol complex has a pK of 2.3, the xylitol complex has a pK of 2.5, the talitol complex has pK of 2.4, the dulcitol complex has a pK of 2.7, the mannitol complex has a pK of 2.7, the 1-aminodulcitol complex has a pK of 2.9, the sorbitol complex has a pK of 3.2, the 1-aminosorbitol complex has a pK of 3.4, the isomaltitol complex has a pK of 3.4, the cellobiitol complex has a pK of 3.5, the lactitol complex has a pK of 3.7, the maltitol complex has a pK of 3.9, the volemitol complex has a pK of 2.9, the perseitol complex has a pK of 3.1, the glucoheptitol complex has a pK of 3.9, and the alpha,alpha-glucooctitol complex has a pK of 4.1.
L-p-Boronophenylalanine-polyol or -aminopolyol complexes are prepared by combining 0.5 mM of alpha-deuterated or alpha-hydrogenated L-p-BPA with between 1.00 and 1.05 equivalents of complexing agent (with the exception of poorly complexing polyols and carbohydrates, in which up to 4.3 equivalents of polyol or carbohydrates are used) in 2 mL of water. One equivalent of NaOH (1 mL of 0.5 M) is then added and the slurry gently warmed if needed in order to dissolve all solids. The pH is then monitored and reduced to between 7.5 and 7.3 by the addition of Dowex50WX4-50 ion exchange resin. The clear solution is then passed through a 0.2 μm syringe filter and then freeze-dried to constant weight. ^1H and ^13C NMR spectra are recorded on a GE 300 MHz FT-NMR spectrometer with D2O buffered at 7.4 [Bates, R G, Bower, V E. 1956. Alkaline solutions for pH control. Anal. Chem. 28:1322-1324] as the solvent. The binding constants are calculated at three different concentrations by integration of the free L-p-BPA aromatic protons (7.73 and 7.33 ppm) compared with those of the L-p-BPA complexes (7.5 and 7.2 ppm). Spectra of the 1:1 complexes are reported.

Row | pK of the p-BPA:carbohydrate/polyol complex (binding constant) | Compound
2 | 3.7 | L-p-boronophenylalanine-lactitol complex
3 | 2.9 | L-p-boronophenylalanine-volemitol complex
4 | 3.9 | L-p-boronophenylalanine-α-glucoheptitol complex
5 | 2.7 | L-p-boronophenylalanine-mannitol complex
6 | 3.2 | L-p-boronophenylalanine fructose complex [reference compound]
7 | 3.9 | L-p-boronophenylalanine-maltitol complex
8 | 3.4 | L-p-boronophenylalanine-aminosorbitol complex [1-aminosorbitol complex]
9 | 2.9 | L-p-boronophenylalanine-aminodulcitol complex [1-aminodulcitol complex]
10 | 2.3 | L-p-boronophenylalanine-rhamnitol complex

More lines, now with the values behind:

Row | Compound | pK of the p-BPA:carbohydrate/polyol complex (binding constant)
11 | L-p-boronophenylalanine-xylitol complex | 2.5
12 | L-p-boronophenylalanine-sorbitol complex | 3.2
13 | L-p-boronophenylalanine-isomaltitol complex | 3.4
14 | L-p-boronophenylalanine-α,α-glucooctitol complex [alpha,alpha-glucooctitol complex] | 4.1
15 | L-p-boronophenylalanine-dulcitol complex | 2.7
16 | L-p-boronophenylalanine-persietol complex [perseitol complex] | 3.1
17 | L-p-boronophenylalanine-cellobiitol complex | 3.5
